{"source": "patent US4474765A", "about": "“Biologically active peptides” (Farmitalia Carlo Erba S.p.A., priority 1982, dated 1984)", "origin": "cited, not measured here", "tested_on": "release of ACTH, β-endorphin, growth hormone, TSH and prolactin", "conditions": "literature, Montecucchi et al. 1979"}
{"smiles": "CC[C@H](C)[C@H](NC(=O)[C@@H](NC(=O)[C@H](CC(=O)O)NC(=O)[C@H](CC(C)C)NC(=O)[C@H](CC(C)C)NC(=O)[C@H](CC(C)C)NC(=O)[C@H](CCCNC(=N)N)NC(=O)[C@H](CC(N)=O)NC(=O)[C@H](CC(N)=O)NC(=O)[C@H](C)NC(=O)[C@H](C)NC(=O)[C@H](CCC(N)=O)NC(=O)[C@H](CCC(N)=O)NC(=O)[C@H](CCCCN)NC(=O)[C@H](CCC(=O)O)NC(=O)[C@H](CCCCN)NC(=O)[C@H](CCC(=O)O)NC(=O)[C@H](CCC(N)=O)NC(=O)[C@H](CCCCN)NC(=O)[C@H](CCC(=O)O)NC(=O)[C@@H](NC(=O)[C@H](CCC(=O)O)NC(=O)[C@@H](NC(=O)[C@H](CCSC)NC(=O)[C@H](CCCCN)NC(=O)[C@H](CCCNC(=N)N)NC(=O)[C@H](CC(C)C)NC(=O)[C@H](CC(C)C)NC(=O)[C@H](CCC(=O)O)NC(=O)[C@H](CC(C)C)NC(=O)[C@H](CO)NC(=O)[C@H](CC(C)C)NC(=O)[C@H](CC(=O)O)NC(=O)[C@@H](NC(=O)[C@H](CO)NC(=O)[C@@H](NC(=O)[C@@H]1CCCN1C(=O)[C@@H]1CCCN1C(=O)CNC(=O)[C@@H]1CCC(=O)N1)[C@@H](C)CC)[C@@H](C)CC)[C@@H](C)CC)[C@@H](C)CC)[C@@H](C)O)C(N)=O", "note": "[sauvagine]", "values": [{"measurement": "pharmacological activities (hormone release)", "result": "release of ACTH and β-endorphin, and inhibition of the release of growth hormone, TSH and prolactin"}]}
